pIC50: −log10 of the molar value.
Key:
Format in all cases: biochemical
Thrombin = Thrombin (Homo sapiens, UniProt P00734); experiment: Related protease inhibition: Thrombin, fluorogenic substrate; conditions: fluorogenic substrate at Km, 25° C., H1-H3 = % activity at 40 μM; for activity at 40 µM: read-out: IC50 (human thrombin) nM
Procedure: (§1) Human serine protease enzyme Plasma Kallikrein, KLK1, FXa, Plasmin, Thrombin and Trypsin were assayed for enzymatic activity using an appropriate fluorogenic substrate at Km concentration, FXIa at fixed substrate concentration of 100 μM and various concentrations of the test compound.

[1] = target: T1, Human Factor XIIa (hFXIIa) (Homo sapiens, UniProt P00748); experiment: Determination of Human Factor XIIa (hFXIIa) inhibition, fluorogenic substrate IC50 assay; conditions: fluorogenic substrate H-DPro-Phe-Arg-AFC at Km, 25° C., read-out: Human FXIIa IC50
T1 construct: purchased Enzyme Research Laboratories
T1 sequence (P00748 373-615 limits assumed): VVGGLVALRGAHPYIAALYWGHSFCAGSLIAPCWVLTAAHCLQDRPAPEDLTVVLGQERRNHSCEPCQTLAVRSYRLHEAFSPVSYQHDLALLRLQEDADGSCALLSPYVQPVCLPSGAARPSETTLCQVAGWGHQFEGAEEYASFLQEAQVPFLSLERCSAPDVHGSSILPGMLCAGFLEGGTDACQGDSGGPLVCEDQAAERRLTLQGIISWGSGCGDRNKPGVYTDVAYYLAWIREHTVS
T1 sequence (P00748 20-372 partner limits assumed): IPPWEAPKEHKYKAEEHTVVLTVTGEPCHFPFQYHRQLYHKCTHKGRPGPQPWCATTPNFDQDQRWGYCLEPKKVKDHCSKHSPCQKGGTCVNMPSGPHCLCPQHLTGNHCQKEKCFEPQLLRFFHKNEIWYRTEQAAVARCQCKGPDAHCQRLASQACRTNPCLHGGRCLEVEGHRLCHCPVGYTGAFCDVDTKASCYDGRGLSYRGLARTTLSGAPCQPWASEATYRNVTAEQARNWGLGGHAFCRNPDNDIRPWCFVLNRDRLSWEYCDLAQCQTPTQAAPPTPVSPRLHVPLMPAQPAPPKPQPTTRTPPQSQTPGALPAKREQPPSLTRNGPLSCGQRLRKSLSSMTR
Procedure: Determination of Human Factor XIIa (hFXIIa) inhibition
The Km for the cleavage of the substrate by hFXIIa was determined by standard transformation of the Michaelis-Menten equation, with subsequent inhibition assays performed at substrate Km concentration.

FXa = FXa (Homo sapiens, UniProt P00742); experiment: Related protease inhibition: FXa, fluorogenic substrate; conditions: fluorogenic substrate at Km, 25° C., H1-H3 = % activity at 40 μM; for activity at 40 µM: read-out: IC50 (human FXa) nM
Procedure: as §1

Chain of FXa (P00742 235-488 limits assumed): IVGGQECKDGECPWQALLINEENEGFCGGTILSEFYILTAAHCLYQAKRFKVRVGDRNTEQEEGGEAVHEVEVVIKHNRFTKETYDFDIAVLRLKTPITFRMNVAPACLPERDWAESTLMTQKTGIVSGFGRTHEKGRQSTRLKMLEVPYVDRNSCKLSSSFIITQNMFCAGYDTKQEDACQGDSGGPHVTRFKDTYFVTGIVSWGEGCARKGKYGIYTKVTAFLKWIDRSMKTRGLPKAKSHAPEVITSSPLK
Chain of FXa (P00742 41-179 partner limits assumed): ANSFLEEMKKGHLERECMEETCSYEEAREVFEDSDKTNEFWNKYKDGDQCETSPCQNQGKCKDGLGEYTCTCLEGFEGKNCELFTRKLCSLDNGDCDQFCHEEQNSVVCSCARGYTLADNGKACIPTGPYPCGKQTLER

SMILES: CCNC(=O)c1nn(-c2cccc(Cl)c2)c2c1CCN(c1ccc3c(c1)N(C(C)=O)CC31CC1)C2=O [Example 1429, 6-(1′-acetylspiro[cyclopropane-1,3′-indolin]-6′-yl)-1-(3-chlorophenyl)-N-ethyl-7-oxo-4,5,6,7-tetrahydro-1H-pyrazolo[3,4-c]pyridine-3-carboxamide]
- activity at 40 µM (Thrombin): 20 to 80%
- pIC50 [1]: 6.00 to 6.52
- activity at 40 µM (FXa): 20 to 80%

SMILES: CCNC(=O)c1nn(-c2cccc(Cl)c2)c2c1CCN(c1cccc(N3CCC4(CC4)C3)c1)C2=O [Example 1430, 6-(3-(5-azaspiro[2.4]heptan-5-yl)phenyl)-1-(3-chlorophenyl)-N-ethyl-7-oxo-4,5,6,7-tetrahydro-1H-pyrazolo[3,4-c]pyridine-3-carboxamide]
- activity at 40 µM (Thrombin): > 80%
- pIC50 [1]: 5.00 to 5.52
- activity at 40 µM (FXa): > 80%

SMILES: CCNC(=O)c1nn(-c2cccc(Cl)c2)c2c1CCN(c1cccc(N3CC4CC4C3)c1)C2=O (stereo not drawn) [Example 1431, 6-(3-(3-azabicyclo[3.1.0]hexan-3-yl)phenyl)-1-(3-chlorophenyl)-N-ethyl-7-oxo-4,5,6,7-tetrahydro-1H-pyrazolo[3,4-c]pyridine-3-carboxamide]
- activity at 40 µM (Thrombin): 20 to 80%
- pIC50 [1]: 4.40 to 5.00
- activity at 40 µM (FXa): < 20%

SMILES: CCNC(=O)c1nn(-c2cccc(Cl)c2)c2c1CCN(c1cccc(N3CCN(C)C(=O)C3)c1)C2=O [Example 1432, 1-(3-chlorophenyl)-N-ethyl-6-(3-(4-methyl-3-oxopiperazin-1-yl)phenyl)-7-oxo-4,5,6,7-tetrahydro-1H-pyrazolo[3,4-c]pyridine-3-carboxamide]
- activity at 40 µM (Thrombin): < 20%
- pIC50 [1]: 5.52 to 6.00
- activity at 40 µM (FXa): 20 to 80%

SMILES: CCNC(=O)c1nn(-c2cccc(Cl)c2)c2c1CCN(c1cc(N3C(=O)CC4CC43)ccc1F)C2=O (stereo not drawn) [Example 1433, 1-(3-chlorophenyl)-N-ethyl-6-(2-fluoro-5-(3-oxo-2-azabicyclo[3.1.0]hexan-2-yl)phenyl)-7-oxo-4,5,6,7-tetrahydro-1H-pyrazolo[3,4-c]pyridine-3-carboxamide]
- activity at 40 µM (Thrombin): > 80%
- pIC50 [1]: 6.00 to 6.52
- activity at 40 µM (FXa): 20 to 80%

SMILES: CCNC(=O)c1nn(-c2cccc(Cl)c2)c2c1CCN(c1ccc3c(c1)C(=O)N(C)C1CC3C1)C2=O [Example 1434, 1-(3-chlorophenyl)-N-ethyl-6-(2-methyl-1-oxo-2,3,4,5-tetrahydro-1H-3,5-methanobenzo[c]azepin-8-yl)-7-oxo-4,5,6,7-tetrahydro-1H-pyrazolo[3,4-c]pyridine-3-carboxamide]
- activity at 40 µM (Thrombin): 20 to 80%
- pIC50 [1]: 5.52 to 6.00
- activity at 40 µM (FXa): 20 to 80%

SMILES: CCNC(=O)c1nn(-c2cccc(Cl)c2)c2c1CCN(c1cc3c(cc1F)OCCN(C)C3=O)C2=O [Example 1435, 1-(3-chlorophenyl)-N-ethyl-6-(8-fluoro-4-methyl-5-oxo-2,3,4,5-tetrahydrobenzo[f][1,4]oxazepin-7-yl)-7-oxo-4,5,6,7-tetrahydro-1H-pyrazolo[3,4-c]pyridine-3-carboxamide]
- activity at 40 µM (Thrombin): > 80%
- pIC50 [1]: 6.52 to 7.00
- activity at 40 µM (FXa): > 80%

SMILES: CCNC(=O)c1nn(-c2cccc(Cl)c2)c2c1CCN(c1cccc(N3C4CCC3CN(C)C4)c1)C2=O [Example 1436, 1-(3-chlorophenyl)-N-ethyl-6-(3-(3-methyl-3,8-diazabicyclo[3.2.1]octan-8-yl)phenyl)-7-oxo-4,5,6,7-tetrahydro-1H-pyrazolo[3,4-c]pyridine-3-carboxamide]
- activity at 40 µM (Thrombin): > 80%
- pIC50 [1]: 5.00 to 5.52
- activity at 40 µM (FXa): > 80%

SMILES: CN1CCc2ccc(N3CCc4c(C(=O)NC5COCC56CC6)nn(-c5cccc(Cl)c5)c4C3=O)cc2C1=O (stereo not drawn) [Example 1438, 1-(3-chlorophenyl)-6-(2-methyl-1-oxo-1,2,3,4-tetrahydroisoquinolin-7-yl)-7-oxo-N-(5-oxaspiro[2.4]heptan-7-yl)-4,5,6,7-tetrahydro-1H-pyrazolo[3,4-c]pyridine-3-carboxamide]
- activity at 40 µM (Thrombin): > 80%
- pIC50 [1]: 6.52 to 7.00
- activity at 40 µM (FXa): > 80%

SMILES: Cc1cc(CNC(=O)c2nn(-c3cc(Cl)cc(CN)c3)c3c2CCN(c2ccc4c(c2)C(=O)N(C)CC4)C3=O)nn1C [Example 2017, 1-(3-(Aminomethyl)-5-chlorophenyl)-N-((1,5-dimethyl-1H-pyrazol-3-yl)methyl)-6-(2-methyl-1-oxo-1,2,3,4-tetrahydroisoquinolin-7-yl)-7-oxo-4,5,6,7-tetrahydro-1H-pyrazolo[3,4-c]pyridine-3-carboxamide]
- pIC50 (Thrombin): 5.52 to 6.00
- pIC50 [1]: 8.00 to 9.00
- pIC50 (FXa): 4.40 to 5.00

SMILES: CN1CCc2ccc(N3CCc4c(C(=O)NCC5CC5)nn(-c5cc(Cl)cc(CN)c5)c4C3=O)cc2C1=O [Example 2018, 1-(3-(aminomethyl)-5-chlorophenyl)-N-(cyclopropylmethyl)-6-(2-methyl-1-oxo-1,2,3,4-tetrahydroisoquinolin-7-yl)-7-oxo-4,5,6,7-tetrahydro-1H-pyrazolo[3,4-c]pyridine-3-carboxamide]
- pIC50 (Thrombin): 4.40 to 5.00
- pIC50 [1]: 7.00 to 8.00
- pIC50 (FXa): < 4.40

SMILES: CN1CCc2ccc(N3CCc4c(C(=O)NCC5CC5)nn(-c5cccc(CN)c5)c4C3=O)cc2C1=O [Example 2019, 1-(3-(aminomethyl)phenyl)-N-(cyclopropylmethyl)-6-(2-methyl-1-oxo-1,2,3,4-tetrahydroisoquinolin-7-yl)-7-oxo-4,5,6,7-tetrahydro-1H-pyrazolo[3,4-c]pyridine-3-carboxamide]
- pIC50 (Thrombin): 4.40 to 5.00
- pIC50 [1]: 6.52 to 7.00
- pIC50 (FXa): 4.40 to 5.00

SMILES: CCNC(=O)c1nn(-c2cccc(OC)n2)c2c1CCN(c1ccc3c(c1)C(=O)N(C)CC3)C2=O [Example 2037, N-ethyl-1-(6-methoxypyridin-2-yl)-6-(2-methyl-1-oxo-1,2,3,4-tetrahydroisoquinolin-7-yl)-7-oxo-4,5,6,7-tetrahydro-1H-pyrazolo[3,4-c]pyridine-3-carboxamide]
- activity at 40 µM (Thrombin): > 80%
- pIC50 [1]: 4.40 to 5.00
- activity at 40 µM (FXa): > 80%

SMILES: COCc1nn(-c2cccc(C#N)c2C)c2c1CCN(c1ccc3c(c1)C(=O)N(C)CC3)C2=O [Example 2038, 3-(3-(Methoxymethyl)-6-(2-methyl-1-oxo-1,2,3,4-tetrahydroisoquinolin-7-yl)-7-oxo-4,5,6,7-tetrahydro-1H-pyrazolo[3,4-c]pyridin-1-yl)-2-methylbenzonitrile]
- activity at 40 µM (Thrombin): > 80%
- pIC50 [1]: 4.40 to 5.00
- activity at 40 µM (FXa): > 80%

SMILES: COCc1nn(-c2cc(Cl)cc(CN)c2)c2c1CCN(c1ccc3c(c1)C(=O)N(C)CC3)C2=O [Example 2041, 7-(1-(3-(aminomethyl)-5-chlorophenyl)-3-(methoxymethyl)-7-oxo-1,4,5,7-tetrahydro-6H-pyrazolo[3,4-c]pyridin-6-yl)-2-methyl-3,4-dihydroisoquinolin-1(2H)-one]
- activity at 40 µM (Thrombin): 20 to 80%
- pIC50 [1]: 7.00 to 8.00
- activity at 40 µM (FXa): 20 to 80%

SMILES: CCNC(=O)c1nn(-c2cccc(C#N)c2C)c2c1CCN(c1ccc3c(c1)C(=O)N(C)CC3)C2=O [Example 2042, 1-(3-cyano-2-methylphenyl)-N-ethyl-6-(2-methyl-1-oxo-1,2,3,4-tetrahydroisoquinolin-7-yl)-7-oxo-4,5,6,7-tetrahydro-1H-pyrazolo[3,4-c]pyridine-3-carboxamide]
- activity at 40 µM (Thrombin): 20 to 80%
- pIC50 [1]: 4.40 to 5.00
- activity at 40 µM (FXa): > 80%

SMILES: CN1CCc2ccc(N3CCc4c(C(=O)N[C@@H](CO)C5CC5)nn(-c5cccc(Cl)c5F)c4C3=O)cc2C1=O [Example 2043, (R)-1-(3-chloro-2-fluorophenyl)-N-(1-cyclopropyl-2-hydroxyethyl)-6-(2-methyl-1-oxo-1,2,3,4-tetrahydroisoquinolin-7-yl)-7-oxo-4,5,6,7-tetrahydro-1H-pyrazolo[3,4-c]pyridine-3-carboxamide]
- activity at 40 µM (Thrombin): 20 to 80%
- pIC50 [1]: 7.00 to 8.00
- activity at 40 µM (FXa): 20 to 80%

SMILES: Cc1ccc(CNC(=O)c2nn(-c3cccc(Cl)c3F)c3c2CCN(c2ccc4c(c2)C(=O)N(C)CC4)C3=O)cn1 [Example 2044, 1-(3-chloro-2-fluorophenyl)-6-(2-methyl-1-oxo-1,2,3,4-tetrahydroisoquinolin-7-yl)-N-((6-methylpyridin-3-yl)methyl)-7-oxo-4,5,6,7-tetrahydro-1H-pyrazolo[3,4-c]pyridine-3-carboxamide]
- activity at 40 µM (Thrombin): 20 to 80%
- pIC50 [1]: 7.00 to 8.00
- activity at 40 µM (FXa): > 80%

SMILES: CCNC(=O)c1nn(-c2cc(C)cs2)c2c1CCN(c1ccc3c(c1)C(=O)N(C)CC3)C2=O [Example 2045, N-ethyl-6-(2-methyl-1-oxo-1,2,3,4-tetrahydroisoquinolin-7-yl)-1-(4-methylthiophen-2-yl)-7-oxo-4,5,6,7-tetrahydro-1H-pyrazolo[3,4-c]pyridine-3-carboxamide]
- activity at 40 µM (Thrombin): 20 to 80%
- pIC50 [1]: 5.00 to 5.52
- activity at 40 µM (FXa): 20 to 80%
